Assays:
[1] = oral administration; cited from earlier work
[2] = Specific surface area by gas adsorption analyzer method (BET); format: physicochemical; settings: losartan active agent
Excerpt: The results of our investigations have shown that it is advantageous to use losartan, with a particle size d (0.9) less than 50μ measured by Malvern light scattering technique, and/or a specific particle specific surface area more than 0.6 m^2/g measured by the Gas adsorption analyzer method (BET).

[3] = Particle size by Malvern light scattering technique; format: physicochemical; settings: particle size of losartan active agent
Excerpt: “d (0.9)” denotes a particle size wherein 90% (volume) particles have diameter less than the specified diameter d.

| Structure (SMILES) | systemic bioavailability [1] | Specific Surface Area [2] | d (0.1) [3] | d (0.5) [3] | d (0.9) [3] |
| --- | --- | --- | --- | --- | --- |
| CCCCc1nc(Cl)c(CO)n1Cc1ccc(-c2ccccc2-c2nn[nH]n2)cc1 [losartan, Losartan] | approximately 33% |  |  |  |  |
| CCCCc1nc(Cl)c(CO)n1Cc1ccc(-c2ccccc2-c2nn[nH]n2)cc1 [A, Losartan Potassium] |  | Specific Surface Area = 0.7-0.8 m^2/g | d (0.1) = 0.869μ | d (0.5) = 10.077μ | d (0.9) = 21.382μ |
| CCCCc1nc(Cl)c(CO)n1Cc1ccc(-c2ccccc2-c2nn[nH]n2)cc1 [B, Losartan Potassium] |  | Specific Surface Area = 0.4-0.5 m^2/g | d (0.1) = 1.806μ | d (0.5) = 24.812μ | d (0.9) = 53.931μ |

Source: US20090304755A1, “PHARMACEUTICAL FORMULATION OF LOSARTAN” (priority 2005, published 2009)
